Data reported in PMC5881522, “Molecular Defects in Cardiac Myofilament Ca^2+-Regulation Due to Cardiomyopathy-Linked Mutations Can Be Reversed by Small Molecules Binding to Troponin” (Frontiers in Physiology, 2018).
“Also recorded” adds a separate entry of the source.

Tests used:
[1] = molecular target: T1, tropomyosin E180G mutant-containing thin filaments (Homo sapiens, UniProt P19429+P45379+P63316); assay: Single [Ca2+] in vitro motility assay screen for re-coupling; format: biochemical; details: for Coupling Difference (Initial Screen E180G): 100 μM compound, difference between motility (%) in phosphorylated and unphosphorylated thin filaments, TPM1 E180G, >10% = re-coupling; for Coupling Difference (Initial Screen E180G) / re-coupling activity (in words): 0.037 μM Ca2+; for re-coupling activity (in words): E180G thin filaments
T1 construct: isolate troponin from 100 mg of donor heart tissue; from tissue; host or cells: troponin: human donor heart; tropomyosin: baculovirus/Sf9 (gift); actin: rabbit fast-twitch skeletal muscle
Description: (§1) Thin filaments were reconstituted with 10 nM rabbit skeletal or mouse cardiac muscle α-actin (labeled with TRITC phalloidin), tropomyosin (40–60 nM), and troponin (60 nM) to study Ca^2+-regulation of filament motility by the quantitative in vitro motility assay (IVMA) (Fraser and Marston, [1995]; Messer et al., [2007]). Thin filament movement over a bed of immobilized rabbit fast skeletal muscle heavy meromyosin (100 μg/ml) was compared in paired motility cells, in which troponin varied by a single factor (mutation, phosphorylation state, or treatment with drug). The temperature was set to 29°C. Filament movement was recorded and analyzed as previously described (Marston et al., [1996]), yielding two parameters, the fraction of filaments moving and the speed of moving filaments. Only the fraction of filaments motile is used in this study.
For drug screening, motility was measured with paired phosphorylated and unphosphorylated tropomyosin E180G mutant-containing thin filaments at a fixed 0.037 μM Ca^2+. Most assays were single measurements.
For the rapid screening of compounds, we devised a single Ca^2+ concentration assay. This is illustrated in Figures 2A,B for quercetin. The test system contains skeletal muscle actin, human sequence recombinant tropomyosin 1.1 containing the E180G HCM-associated mutation and human cardiac troponin from donor hearts in the phosphorylated and unphosphorylated form. At 0.037 μM Ca^2+ the filaments are about 40% motile irrespective of phosphorylation level whilst when quercetin is added the phosphorylated Ca^2+ activity curve shifts to the right and % motility at 0.037 μM Ca^2+ drops, whilst the unphosphorylated level is unchanged. We have set a difference between phosphorylated and unphosphorylated >10% as indicating re-coupling activity. This assay method can also be used to construct a dose-response curve as shown. We investigated compounds in 4 categories.
Figure 2 Single [Ca^2+] screen for re-coupling compounds. […] Solid lines, phosphorylated state; dotted lines, unphosphorylated state. Purple lines and points, E180G thin filaments; green lines and points, E180G thin filaments + Quercetin (B) Dose -response curve for quercetin recoupling activity measured at a constant concentration of 0.037 μM Ca^2+. INSET, kinetic analysis of dose response curve; difference between phosphorylated and unphosphorylated states is plotted against quercetin concentration. The Hill equation is fitted to the data, EC50 = 8 μM. (C,D) The effect of 100 μM drug treatment on the difference between % of motility of phosphorylated and unphosphorylated tropomyosin E180G mutant-containing thin filaments at 0.037 μM Ca^2+. (C) EGCG-related molecules (for structures 1–28 see Figure S1 and Table 1). (D) Silybin, related compounds and other HsP90 inhibitors and Ca^2+ desensitizers. The threshold for positive re-coupling was set at a 10% difference (dotted line).

[2] = molecular target: T2, thin filaments containing E180G tropomyosin (TPM1 E180G, HCM) (Homo sapiens, UniProt P19429+P45379+P63316); assay: IVMA Ca2+-activation curves, TPM1 E180G; format: biochemical; details: phosphorylated and unphosphorylated E180G tropomyosin thin filaments, 25 μM for Quercetin and ECG
T2 construct: isolate troponin from 100 mg of donor heart tissue; from tissue; host or cells: troponin: human donor heart; tropomyosin: baculovirus/Sf9 (gift); actin: rabbit fast-twitch skeletal muscle
Source text: (§2) Recombinant human sequence tropomyosin was a gift from Kristen Nowak and Elyshia MacNamara, University, Western Australia. Wild-type α-tropomyosin (Tpm1.1) and mutant E180G tropomyosin were expressed in a baculovirus/Sf9 system (Akkari et al., [2002]; Marston et al., [2013]). Skeletal muscle F-actin and myosin were isolated from rabbit fast-twitch skeletal muscle as previously described (Messer et al., [2007]). TnC G159D mutant troponin was extracted from a mutant human heart sample (Dyer et al., [2009]), E99K mutant cardiac actin was extracted from the E99K transgenic mouse heart (Song et al., [2013]).
as §1
The fraction motile was measured over a range of Ca^2+ concentrations to generate Ca^2+-activation curves. The data were fitted to the 4-variable Hill equation to yield a value for EC50 and nH. Most assays of the effect of compounds are single measurements. […]

[3] = system: isolated cardiomyocytes from ACTC E99K HCM transgenic mice; assay: Lusitropic effect of dobutamine in isolated cardiomyocytes; format: cell-based; details: blunted in ACTC E99K mouse cardiomyocytes; preliminary experiments
Source text: The main effect of uncoupling of the modulation of Ca^2+ sensitivity by TnI phosphorylation is the loss of the lusitropic response to beta adrenergic stimulation, which is usually accompanied by blunting of the whole physiological adrenergic response.

[4] = molecular target: T3, thin filaments containing TnC G159D (TNNC1 G159D, DCM) (Homo sapiens, UniProt P19429+P45379+P63316, G159D); assay: IVMA Ca2+-activation curves, TNNC1 G159D; format: biochemical; details: phosphorylated and unphosphorylated TnC G159D thin filaments
T3 construct: TnC G159D mutant troponin was extracted from a mutant human heart sample; from tissue; host or cells: mutant human heart sample (troponin); rabbit skeletal muscle (actin)
Source text: as §2
Thin filaments were reconstituted with 10 nM rabbit skeletal or mouse cardiac muscle α-actin (labeled with TRITC phalloidin), tropomyosin (40–60 nM), and troponin (60 nM) to study Ca^2+-regulation of filament motility by the quantitative in vitro motility assay (IVMA) (Fraser and Marston, [1995]; Messer et al., [2007]). […] Filament movement was recorded and analyzed as previously described (Marston et al., [1996]), yielding two parameters, the fraction of filaments moving and the speed of moving filaments. […]
The fraction motile was measured over a range of Ca^2+ concentrations to generate Ca^2+-activation curves. […]

Hsp90 = system: Hsp90; design: method as in Khandelwal et al., 2013; details: ref Khandelwal et al., 2013; read-out: EC50 Hsp90 inhibition assay; cited from earlier work
[5] = dose-response of % motility difference at 0.037 μM Ca2+, Hill fit

Row | SMILES | Coupling Difference (Initial Screen E180G) [1] | re-coupling activity (in words) [1] | other results
1 | COc1cc([C@H]2Oc3cc(-c4oc5cc(O)cc(O)c5c(=O)c4O)ccc3O[C@@H]2CO)ccc1O [Dehydrosilybin A, 2,3-dehydrosilybin A] | 3% | poor recoupling molecule | effect on Ca2+-activation curves (desensitizer / re-coupler), in words [2]: ineﬀective
2 | COc1cc([C@@H]2Oc3cc(-c4oc5cc(O)cc(O)c5c(=O)c4O)ccc3O[C@H]2CO)ccc1O [Dehydrosilybin B, 2,3-dehydrosilybin B] | 62% | restores coupling | EC50 [1, 5]: 47 µM; effect on Ca2+-activation curves (desensitizer / re-coupler), in words [2]: pure recoupling; effect on Ca2+-activation curves (desensitizer / re-coupler), in words ([2]; listed as dehydrosilybin B): recouples
3 | O=C(O[C@@H]1Cc2c(O)cc(O)cc2O[C@@H]1c1ccc(O)c(O)c1)c1cc(O)c(O)c(O)c1 [Epicatechin Gallate] | 8% | – | effect on Ca2+-activation curves (desensitizer / re-coupler), in words ([2]; listed as ECG): pure desensitizer; also recorded: desensitizer but not a recoupler
4 | Oc1cc(O)c2c(c1)O[C@H](c1ccc(O)c(O)c1)[C@H](O)C2 [Epicatechin] | 69% | – | –
5 | Oc1cc(O)c2c(c1)O[C@H](c1cc(O)c(O)c(O)c1)[C@H](O)C2 [Epigallocatechin] | 62% | – | –
6 | Oc1cc(O)c2c(c1)O[C@H](c1cc(O)c(O)c(O)c1)[C@@H](O)C2 [Gallocatechin] | 68% | – | –
7 | COc1cc(C2Oc3ccc([C@H]4Oc5cc(O)cc(O)c5C(=O)[C@@H]4O)cc3OC2CO)ccc1O (stereo partly drawn) [Isosilybin] | 4% | – | –
8 | CO[C@@H]1[C@@H](OC(N)=O)[C@@H](O)[C@H](Oc2ccc3c(O)c(NC(=O)c4ccc(O)c(CC=C(C)C)c4)c(=O)oc3c2C)OC1(C)C [Novobiocin] | 46% | – | –
9 | COC(=O)N1CCN(Cc2cccc(NC(=O)Nc3ccc(C)nc3)c2F)CC1 [Omecamtiv Mecarbil] | 0% | do not re-couple | –
10 | COc1cc(/C=C/c2ccc(O)cc2)cc(OC)c1 [Pterostilbene] | 50% | effective re-couplers | –
11 | O=c1c(O)c(-c2ccc(O)c(O)c2)oc2cc(O)cc(O)c12 [Quercetin] | 51% | – | EC50 [1, 5]: 8 µM; effect on Ca2+-activation curves (desensitizer / re-coupler), in words [2]: typical pure recoupler; also recorded: pure recoupling
12 | Oc1ccc(/C=C/c2cc(O)cc(O)c2)cc1 [Resveratrol] | 63% | effective re-couplers | lusitropic effect of dobutamine, in words [3]: restored
13 | COc1cc([C@H]2Oc3cc([C@H]4Oc5cc(O)cc(O)c5C(=O)[C@@H]4O)ccc3O[C@@H]2CO)ccc1O [Silybin A] | 5% | complex dose sensitive | effect on Ca2+-activation curves (desensitizer / re-coupler), in words [4]: pure desensitizer
14 | COc1cc(C2Oc3cc([C@H]4Oc5cc(O)cc(O)c5C(=O)[C@@H]4O)ccc3OC2CO)ccc1O (stereo partly drawn) [Silybin] | 12.0% | – | EC50 [1, 5]: 47 µM
15 | COc1cc([C@@H]2Oc3c(O)cc([C@H]4Oc5cc(O)cc(O)c5C(=O)[C@@H]4O)cc3[C@H]2CO)ccc1O [Silychristin] | 35% | – | –
16 | COc1cc([C@@H]2[C@H]3CO[C@@]4(O)C(=O)[C@@H]2C=C([C@H]2Oc5cc(O)cc(O)c5C(=O)[C@@H]2O)[C@@H]34)ccc1O [Silydianin] | 20% | – | –
17 | COc1ccc(-c2coc3cc(O[C@@H]4O[C@H](CO)[C@@H](O)[C@H](O)[C@H]4O)cc(O)c3c2=O)cc1 [Sissotrin] | 30% | – | –
18 | O=C1c2c(O)cc(O)cc2OC(c2ccc(O)c(O)c2)C1O (stereo not drawn) [Taxifolin] | 60% | – | –
19 | NCCCCCCNS(=O)(=O)c1cccc2c(Cl)cccc12 [W-7] | 50% | effective re-couplers | –
20 | COc1cccc(-c2cc(C(=O)OC3COc4cc(O)cc(O)c4C3)ccc2OC)c1 (stereo not drawn) [compound 2] | 27.0% | effective re-couplers | EC50 (Hsp90): 22 µM; EC50 [1, 5]: 30 µM
21 | COc1cccc(C(=O)OC2COc3cccc(O)c3C2)c1 (stereo not drawn) [compound 4] | 27.0% | – | EC50 (Hsp90): > 100 µM; EC50 [1, 5]: 34 µM
22 | COc1ccc(C(=O)OC2COc3cc(OC)cc(OC)c3C2)cc1 (stereo not drawn) [compound 7] | −11.0% | reverse effect | EC50 (Hsp90): 32 µM; EC50 [1, 5]: 67 µM
23 | COc1cc(OC)c2c(c1)OCC(OC(=O)c1ccc(OC(C)=O)c(CC=C(C)C)c1)C2 (stereo not drawn) [compound 8] | No Effect | inactive | EC50 (Hsp90): 38 µM
24 | COc1ccc(C(=O)OC2COc3cccc(O)c3C2)cc1 (stereo not drawn) [compound 9] | 20.0% | – | EC50 (Hsp90): > 100 µM; EC50 [1, 5]: 35 µM
25 | O=C(O[C@H]1COc2cc(O)cc(O)c2C1)c1cccc(O)c1 [compound 12] | −1.0% | – | EC50 (Hsp90): 63 µM; nH (Table 6-1, E180G + Drug) ([1]; Hill coefficient of dose-response of % motility difference, 0.037 µM Ca2+): No%Eﬀect; EC50 (Table 6-1, E180G + Drug) ([1]; difference between phosphorylated and dephosphorylated TPM1 E180G thin filaments, 0.037 µM Ca2+, Hill fit): No%Eﬀect; E180G EC50 % Motility Difference [1, 5]: No Effect; Magnitute (% difference) ([1]; fitted magnitude of dose-response of % motility difference, 0.037 µM Ca2+): No%Eﬀect
26 | CCOc1cccc(C(=O)OC2COc3cc(OC)cc(OC)c3C2)c1 (stereo not drawn) [compound 16] | 6.0% | inactive | EC50 (Hsp90): 8 µM; EC50 [1, 5]: 31 µM
27 | COc1cc(OC)cc(C(=O)OC2COc3cc(OC)cc(OC)c3C2)c1 (stereo not drawn) [compound 19] | 24.0% | re-coupler | EC50 (Hsp90): 21 µM
